Test results as given in patent US20150011588A1, “Novel formulation, omeprazole antacid complex-immediate release for rapid and sustained suppression of gastric acid” (priority 2003, published 2015).

Experiments:
[1] = clinical; details: human, plasma, oral, 40 mg
Description: Pharmacokinetic parameters disclosed herein include: (1) parameters obtained directly from the data without interpolation, including plasma omeprazole concentration, peak omeprazole plasma concentration (Cmax), and time to peak omeprazole plasma concentration (Tmax); (2) terminal elimination rate constant (kel) determined from a log-linear regression analysis of the terminal plasma omeprazole concentrations; (3) terminal elimination half-life (t1/2) calculated as 0.693/kel; (4) area under the omeprazole plasma concentration-time curve from time zero to time “t” (AUCo-t), calculated using the trapezodial rule with the plasma concentration at time “t” being the last measurable concentration; (5) area under the omeprazole plasma concentration-time curve from time zero to time infinity (AUC0-inf), calculated as AUC0-t+Ct/kel, where Ct is the last measurable plasma concentration and kel is the terminal elimination rate constant defined above.
Blood samples (10 mL) were taken within 30 minutes predose and up to 12 hours postdose; eg, postdose at 5, 10, 15, 30, 45, 60, 90, 120, 180, 240, 300, 360 minutes, and up to 12 hours in some studies.
(§1) This trial protocol is designed as a single-dose crossover trial. […] Each dose was followed by a 7-14 day washout. The same treatment was administered to all subjects in each trial period:
For the periods including omeprazole powder plus tablet administration, the subject received omeprazole powder administered directly onto the dorsal mid-tongue Immediately thereafter, subjects were given one chewable antacid tablet, which they began chewing. The subject continued to chew the tablet while mixing it with omeprazole powder, and carefully avoided swallowing the powder immediately. One minute after initiating chewing (and after completely swallowing trial medications), each subject drank 120 mL of water, swishing the oral contents before swallowing.
Pharmacokinetic evaluations include plasma omeprazole and esomeprazole concentration over time; and plasma omeprazole and esomeprazole C., Tmax, kel, T1/2, AUC(0-t), and AUC(0-inf).

[2] = test system: gastric acidity; experiment: SAN-15-CO1C trial: gastric pH monitoring, omeprazole powder with or without antacid; type: in vivo, human; details: omeprazole 40 mg, administered 1 hour pre-meal, 10 subjects
Protocol: Pharmacodynamic parameters disclosed herein include: (1) mean gastric acid concentration; (2) onset time of gastric pH increase; (3) gastric pH over time; (4) length of time gastric pH is >4; (5) percentage (%) of time gastric pH is time pH>4 (in figures as “% time pH>4”); (6) median gastric pH; and (7) integrated gastric acidity, which is expressed as mM acid×time, (mmol acid×hr/L) is calculated as the cumulative time-weighted average of mean gastric acid concentration, as follows:
as §1
For periods requiring a meal, subjects fasted for at least 10 hours and were allowed water ad libitum until 2 hours prior to administration. Gastric pH monitoring was recorded for up to 11 hours beginning at time zero. The standard breakfast was ingested over 30 minutes beginning 90 minutes after the initiation of pH monitoring.
For periods including dosing after a meal, subjects fasted for at least 10 hours. On Day 0, ninety minutes of probe pH monitoring was started prior to initiating ingestion of the standardized breakfast, which was eaten within 30 minutes. The pH monitoring continued for 9.5 hours after initiating ingestion of breakfast. […]

AUC(0-inf) [1]: 225 ng·h/mL
AUC(0-t) [1]: 225 ng·h/mL
Cmax [1]: 186 ng/mL
SMILES: COc1ccc2[nH]c([S+]([O-])Cc3ncc(C)c(OC)c3C)nc2c1 (stereo not shown) [Omeprazole Powder]
Median Integrated Gastric Acidity 0-210 min. Post-meal [2]: 35 mmol·h/L
